Values joined by “and” are separate entries in the source; they are usually repeats but may differ in a detail not shown here. Equal entries are not always repeated.
Assays:
Format in all cases: in vivo
Helicoverpa armigera = assay: Diet incorporation method against Helicoverpa armigera (Example A); settings: single compound, 0.2 ppm, 96 h
Method: The diet incorporation method was used, in which semi-synthetic diet was incorporated into the test solutions consisting either of the single compounds or respective compound combinations, when the temperature was approximately 50° C. in the bio-assay containers, then stirred thoroughly for proper mixing and allowed to cool for 30 min. The solidified diet was cut into equal pieces, and then each piece was transferred into one cell of a bio-assay tray. A single starved third instar larva was released into each of these cells of the bio-assay trays and the tray was covered with a lid. The bio-assay trays were kept under laboratory conditions at a temperature of 25° C. and relative humidity of 70%. Observations on dead, moribund and live larvae were recorded 96 h after the release of the larvae. Percent mortality was calculated by combining dead and moribund larvae and comparing the result to the one of the untreated control. The results are shown for the compound of formula (I-III) in Table A.

Septoria nodorum = assay: Preventive glasshouse test against Parastagonospora nodorum/Septoria nodorum/Stagnospora nodorum in wheat (Example J); settings: single compound
Method: (§1) The single compounds or respective compound combinations were dissolved in 2% dimethyl sulfoxide/acetone and then mixed with water containing emulsifier to a calibrated spray volume of 50 mL. The test solutions were poured into spray bottles for further applications.
To test the preventive activity of compounds, healthy young wheat plants, raised in the greenhouse, were sprayed with the active compound preparation at the stated application rates inside the spray cabinets using hollow cone nozzles. One day after treatment, the plants were inoculated with a spore suspension containing 2.8×10^6 Stagnospora nodorum inoculum.
The inoculated plants were then kept in a greenhouse chamber at 22-25° C. temperature and 90-100% relative humidity for disease expression.
(§2) A visual assessment of the performance of the single compounds or compound combinations was carried out by rating the disease severity (0-100% scale) on treated plants 3, 7, 10 and 15 days after application. Efficacy (% control) of the single compounds and mixtures was calculated by comparing the disease rating in the treatment with the one of the untreated control. The compounds were also assessed for their plant compatibility by recording symptoms like necrosis, chlorosis and stunting. The results have been described for the compound of formula (I-III) in Table J.

Spodoptera litura = assay: Diet incorporation method against Spodoptera litura (Example B); settings: single compound, 1 ppm, 96 h
Method: The diet incorporation method was used, in which semi-synthetic diet was incorporated into the test solution consisting either of the single compound or respective compound combinations, when the temperature was approximately 50° C. in the bioassay containers, then stirred thoroughly for proper mixing and allowed to cool for 30 min. The solidified diet was cut into equal pieces, and then each piece was transferred into one cell of the bio-assay trays. A single starved third instar larva was released into each of these cells of the bio-assay trays and the tray was covered with a lid. The bio-assay trays were kept under laboratory conditions at a temperature of 25° C. and relative humidity of 70%. Observations on dead, moribund and live larvae were recorded 96 h after the release. Percent mortality was calculated by combining dead and moribund larvae and comparing the result with the one of the untreated control. The results are shown for the compound of formula (I-III) in Table B.

Alternaria solani = assay: Preventive glasshouse test against Alternaria solani in tomato (Example G); settings: single compound
Method: as §1
(§3) To test the preventive activity, healthy young tomato plants, raised in the greenhouse, were sprayed with the active compound preparation at the stated application rates inside the spray cabinets using hollow cone nozzles. One day after treatment, the plants were inoculated with a spore suspension containing 0.24×10^6 Alternaria solani inoculum and 2% Malt. The inoculated plants were then kept in a greenhouse chamber at a temperature of 22-24° C. and 90-95% relative humidity for disease expression.
as §2, with “G.” for “J.”

Plutella xylostella [1] = assay: Leaf dip method (cabbage leaves) against Plutella xylostella (Example C); settings: single compound, 72 h
Method: The leaf dip method was used, wherein the required quantity of the compound or respective compound combinations were weighed and dissolved in a test solution prepared in tubes. The tubes were put on a vortex at 2000 rpm for 90 min for proper mixing and then the test solutions were diluted with 0.01% Triton-X to the desired test concentration. Cabbage leaves were dipped into the solution for 10 seconds, shade dried for 20 min and then transferred to single cells of bioassay trays. A single second instar larva was released into each cell and the tray was covered with a lid. The bio-assay trays were kept under laboratory conditions at a temperature of 25° C. and relative humidity of 70%. Observations on dead, moribund and live larvae were recorded 72 h after the release. Percent mortality was calculated by combining dead and moribund larvae and comparing the result with the one of the untreated control. The results are shown for compound of formula (I-III) in Table C.

Phakopsora pachyrhizi = assay: Preventive glasshouse test against Phakopsora pachyrhizi in soybean (Example H); settings: single compound
Method: The single compounds or the respective compound combinations were dissolved in 2% dimethyl sulfoxide/acetone and then mixed with water containing an emulsifier to a calibrated spray volume of 50 ml. The test solutions were poured into spray bottles for further applications.
as §3, with “activity of compounds,” for “activity,”, “Soybean” for “tomato”, “a” for “a spore”, “2×10^5 Phakopsora pachyrhizi conidia.” for “0.24×10^6 Alternaria solani inoculum and 2% Malt.”, “80-90%” for “90-95%”
A visual assessment of the performance of the single compounds and respective compound combinations was carried out by rating the disease severity (0-100% scale) on treated plants 3, 7, 10 and 15 days after application. Efficacy (% control) of the compounds was calculated by comparing the disease rating in the treatment with the one of the untreated control. The compounds were also assessed for their plant compatibility by recording symptoms like necrosis, chlorosis and stunting. The results have been described for the compound of formula (I-III) in Table H.

Plutella xylostella [2] = assay: Leaf dip method (cabbage leaves) with Bacillus thuringiensis against Plutella xylostella (Example F); settings: single, 0.1 ppm, 72 h
Method: The leaf dip method was used, wherein the required quantity of the compounds were weighed and dissolved in a test solution prepared in tubes. The tubes were put on a vortex at 2000 rpm for 90 min for proper mixing and then, for the single compounds, diluted with a 0.01% Triton-X solution, for the combinations, diluted with a 0.01% Triton-X solution containing formulated Bt, to get the desired test concentration. Cabbage leaves were dipped in the solution for 10 seconds, shade dried for 20 min and then transferred to single cells of bioassay trays. A single second instar larva was released into each cell and the tray was covered with a lid. The bio-assay trays were kept under laboratory conditions at a temperature of 25° C. and relative humidity of 70%. Observations on dead, moribund and live larvae were recorded 72 h after the release. Percent mortality was calculated by combining dead and moribund larvae and comparing the results to the one of the untreated control. The results have been described for compound of formula (I-III) in Table F.

With “6-(3-bromo-1-(3-chloropyridin-2-yl)-1H-pyrazole-5-carboxamido)-N-isopropyl-5-methylpyrazolo[1,5-a]pyridine-7-carboxamide [Compound (I-III)]” the “Observed Efficacy (%)” value (Helicoverpa armigera) was 12.5%, the “Observed Efficacy (%)” value (Septoria nodorum; 100 ppm) was 24% and the “Observed Efficacy (%)” value (Septoria nodorum; 500 ppm) was 32%. The “Observed Efficacy (%)” value (Spodoptera litura) was 12.5% and 25%, the “Observed Efficacy (%)” value (Alternaria solani; 100 ppm) was 30% and the “Observed Efficacy (%)” value (Alternaria solani; 500 ppm) was 32%. The “Observed Efficacy (%)” value (Plutella xylostella [1]; 0.05 ppm) was 12.5%, the “Observed Efficacy (%)” value (Plutella xylostella [1]; 0.1 ppm) was 12.5% and the “Observed Efficacy (%)” value (Plutella xylostella [1]; 0.5 ppm) was 25%. For the same substance, the “Observed Efficacy (%)” value (Phakopsora pachyrhizi; 100 ppm) was 25%, the “Observed Efficacy (%)” value (Phakopsora pachyrhizi; 500 ppm) was 56% and the “Observed Efficacy (%)” value (Plutella xylostella [2]) was 12.5%.

From patent US20230276804A1, “A PESTICIDALLY ACTIVE MIXTURE COMPRISING PYRAZOLOPYRIDINE ANTHRANILAMIDE COMPOUND, OXIDES OR SALTS THEREOF” (priority 2020, published 2023)
